These are literature values, as cited in patent US20250134912A1 (Theaprin Pharmaceuticals, Inc., priority 2021, published 2025).

Data set [1] concerns critically ill children with suspected zinc deficiency. Conditions: in vivo, iv, 0.75 mg/kg/day.
Data set [2] concerns hospitalized patients with COVID-19. The conditions noted are these: aspirin used was not an aspirin/theanine cocrystal.
Data set [3] concerns patients with COVID-19. The conditions noted are these: 31 patients with COVID-19, in comparison to the controlled patients.
The test system of data set [4] is SARS-COV-2. Conditions: SARS-COV-2, in vitro.
The conditions of data set [5]: at 25° C.

`[Zn]` [Elemental zinc]: in data set [1], the adverse effects entry is on record as “without producing any adverse effects”.

Consider `CC(=O)Oc1ccccc1C(=O)O` [aspirin, acetylsalicylic acid], for which the “mechanical ventilation, ICU admission, and in-hospital mortality” value in data set [2] is “decrease”. Regarding `OCCN(CCO)c1nc(N2CCCCC2)c2nc(N(CCO)CCO)nc(N3CCCCC3)c2n1` [dipyridamole, 2,6 bis-(diethanolamino)-4,8 dipiperidino-pyrimido-(5,4-d)pyrimidine], in data set [3], the clinical outcomes is on record as “markedly improved”; the “lymphocyte and plasma platelet recovery” value is reported as “increased”. For the same molecule, the D-Dimer entry in data set [3] (P>0.05) is reported as “significantly decreased”. Further, the “viral replication in vitro” value in data set [4] is reported as “suppressed”. Turning to `[Cl-].[Cl-].[Zn+2]` [zinc chloride, Zinc chloride], the water solubility in data set [5] is on record as 432 g/100 ml water.
